Assay results as given in patent US5350574A, “Derivatives of cyclosporina A, antibodies directed thereto and uses thereof” (The Trustees of Columbia University in the City of New York, priority 1991, dated 1994).
Entries after “also recorded” stand apart in the source; their conditions may differ.

Experiments:
[1] = system: rabbit antibody R575 (anti-CsA); experiment: Inhibition RIA for antibody specificity with CsA analogues; assay type: binding; details: for IC50: read-out: IC50 (Concentration for 50% inhibition), inhibition of [3H]dihydro CsA binding to R575, overnight at 4° C.; for affinity group for the antibodies (inhibition RIA): result in words
Method: Serum antibodies were detected by a modification of the published radioimmunoassay (5, 12 ). […] Binding by diluted preimmune serum was used as a control. Free and bound ligand were separated with charcoal supplied by Sandoz according to their procedure.
The cyclosporin derivatives were dissolved in 100% ethanol at a concentration of 5.0 mg/ml, stored at -20° C., and diluted to final concentrations of 0.27 nM to 2.7 μM in Sandoz buffer B for the inhibition experiments.

[2] = system: EL-4 cells; experiment: Cell agglutination assay, EL-4 cells; assay type: cell-based; details: inhibitor concentration not given
Method: (§1) T or B cells (4-8×10^4 cells) were added to 200 μl of medium (see above) containing 50 μl of either PBS (vehicle control), aminodextran, BBa-aminodextran, or CsA-BBa-aminodextran at a concentration of 5×10^-7 M, in the presence or absence of various inhibitors or solvent controls, gently agitated on a platform shaker for 15 minutes at 25° C., incubated without agitation for 2-3 hours at 25° C., placed in a refrigerator and examined for agglutination periodically. The end points can begin to be seen after about 2-3 hours.

[3] = system: DO-11.10; experiment: Cell agglutination assay, DO-11.10 T-cell hybridoma; assay type: cell-based
Method: as §1

[4] = system: 32-6.F12; experiment: Cell agglutination assay, 32-6.F12 T-cell hybridoma; assay type: cell-based
Method: as §1

Row | Compound | IC50 [1] [nM] | affinity group for the antibodies (inhibition RIA) [1] | inhibition of [3H]CsA binding obtainable ([1]; maximal inhibition by competing derivative) | inhibition of agglutination of EL-4 cells by CsA-BBa-aminodextran [2] | inhibition of agglutination of DO-11.10 cells by CsA-BBa-aminodextran [3] | inhibition of agglutination of 32-6.F12 cells by CsA-BBa-aminodextran [4]
1 | C/C=C/C[C@@H](C)[C@@H](OC(C)=O)[C@H]1C(=O)N[C@@H](CC)C(=O)N(C)CC(=O)N(C)[C@@H](CC(C)C)C(=O)N[C@@H](C(C)C)C(=O)N(C)[C@@H](CC(C)C)C(=O)N[C@@H](C)C(=O)N[C@H](C)C(=O)N(C)[C@@H](CC(C)C)C(=O)N(C)[C@@H](CC(C)C)C(=O)N(C)[C@@H](C(C)C)C(=O)N1C [Derivative 243] | 6 | high affinity group; also recorded: bind best | – | – | – | –
2 | C/C=C/C[C@@H](C)[C@@H](O)[C@H]1C(=O)N[C@@H](CC)C(=O)N(C)CC(=O)N(C)[C@@H](CC(C)C)C(=O)N[C@@H](C(C)C)C(=O)N(C)[C@@H](CC(C)C)C(=O)N[C@@H](C)C(=O)N[C@H](COC(C)(C)C)C(=O)N(C)[C@@H](CC(C)C)C(=O)N(C)[C@@H](CC(C)C)C(=O)N(C)[C@@H](C(C)C)C(=O)N1C [Derivative 717] | 2700 | inhibits very poorly; also recorded: low affinity | more than 50% | – | – | –
3 | C/C=C/C[C@@H](C)[C@@H](O)[C@H]1C(=O)N[C@@H]([C@@H](C)OC(C)=O)C(=O)N(C)CC(=O)N(C)[C@@H](CC(C)C)C(=O)N[C@@H](C(C)C)C(=O)N(C)[C@@H](CC(C)C)C(=O)N[C@@H](C)C(=O)N[C@H](C)C(=O)N(C)[C@@H](CC(C)C)C(=O)N(C)[C@@H](CC(C)C)C(=O)N(C)[C@@H](C(C)C)C(=O)N1C [Derivative 665] | 4.8 | high affinity group; also recorded: bind best | – | – | – | –
4 | C/C=C/C[C@@H](C)[C@@H](O)[C@H]1C(=O)N[C@@H](CC)C(=O)N2CCC[C@H]2C(=O)N(C)[C@@H](CC(C)C)C(=O)N[C@@H](C(C)C)C(=O)N(C)[C@@H](CC(C)C)C(=O)N[C@@H](C)C(=O)N[C@H](C)C(=O)N(C)[C@@H](CC(C)C)C(=O)N(C)[C@@H](CC(C)C)C(=O)N(C)[C@@H](C(C)C)C(=O)N1C [Derivative 582] | 12 | Moderate affinities | – | – | – | –
5 | C/C=C/C[C@@H](C)[C@@H](O)[C@H]1C(=O)N[C@@H](C(C)C)C(=O)N(C)CC(=O)N(C)[C@@H](CC(C)C)C(=O)N[C@@H](C(C)C)C(=O)N(C)[C@@H](CC(C)C)C(=O)N[C@@H](C)C(=O)N[C@H](C)C(=O)N(C)[C@@H](CC(C)C)C(=O)N(C)[C@@H](CC(C)C)C(=O)N(C)[C@@H](C(C)C)C(=O)N1C [CsD] | 4.3 | high affinity group; also recorded: bind best | – | – | – | –
6 | C/C=C/C[C@@H](C)[C@@H](O)[C@H]1C(=O)N[C@@H](CC)C(=O)N(C)CC(=O)N(C)[C@@H](CC(C)C)C(=O)N[C@@H](C(C)C)C(=O)N(C)[C@@H](CC(C)C)C(=O)N[C@@H](C)C(=O)N[C@H](C)C(=O)N(C)[C@@H](CC(C)C)C(=O)N(C)[C@@H](CC(C)C)C(=O)N(C)[C@@H]([C@@H](C)CC)C(=O)N1C [Derivative 032] | 7 | high affinity group; also recorded: bind best | – | – | – | –
7 | C/C=C/C[C@@H](C)[C@@H](O)[C@H]1C(=O)N[C@@H](CC)C(=O)N(C)CC(=O)N(C)[C@@H](CC(C)C)C(=O)N[C@@H](C(C)C)C(=O)N(C)[C@H](C)C(=O)N[C@@H](C)C(=O)N[C@H](C)C(=O)N(C)[C@@H](CC(C)C)C(=O)N(C)[C@@H](CC(C)C)C(=O)N(C)[C@@H](C(C)C)C(=O)N1C [Derivative 039] | 18 | Moderate affinities | – | – | – | –
8 | O=C(O)c1ccc(C(=O)c2ccccc2)cc1 [BBa, 4-Benzyoylbenzoic acid] | – | – | – | no inhibition | not | not
9 | C/C=C/C[C@@H](C)[C@@H](O)[C@H]1C(=O)N[C@@H]([C@@H](C)O)C(=O)N(C)CC(=O)N(C)[C@@H](CC(C)C)C(=O)N[C@@H](C(C)C)C(=O)N(C)[C@@H](CC(C)C)C(=O)N[C@@H](C)C(=O)N[C@H](C)C(=O)N(C)[C@@H](CC(C)C)C(=O)N(C)[C@@H](CC(C)C)C(=O)N(C)[C@@H](C(C)C)C(=O)N1C [CsC] | 11.5 | Moderate affinities | – | – | – | –
